Results taken from ChEMBL document CHEMBL1201862, “PubChem BioAssay data set” (2004).
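The compound was tested at five concentrations on cells cultured in 96-well plates, with a 48-hour exposure period. Abbreviation: GI50, concentration required for 50% inhibition of growth.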 Activity calls are given as the source filed them. No stated cut-off is given here; in the data, active = GI50 up to about 1.1 µM and inactive = higher.

Legend:
Experiment in all cases: NCI anticancer screen, dose series, 48 h
U-251 = system: U-251
HOP-62 = system: HOP-62
ACHN = system: ACHN
PC-3 = system: PC-3
Hs-578T = system: Hs-578T
SK-OV-3 = system: SK-OV-3
LOX IMVI = system: LOX IMVI
HT-29 = system: HT-29
MDA-MB-435 = system: MDA-MB-435
OVCAR-4 = system: OVCAR-4
IGROV-1 = system: IGROV-1
MCF7 = system: MCF7
SK-MEL-28 = system: SK-MEL-28
NCI-H226 = system: NCI-H226
UACC-62 = system: UACC-62
TK-10 = system: TK-10
RXF 393 = system: RXF 393
SN12C = system: SN12C
MDA-N = system: MDA-N
MDA-MB-231 = system: MDA-MB-231

SMILES | GI50 (U-251) | GI50 (HOP-62) | GI50 (ACHN) | GI50 (PC-3) | GI50 (Hs-578T) | GI50 (SK-OV-3) | GI50 (LOX IMVI) | GI50 (HT-29) | GI50 (MDA-MB-435) | GI50 (OVCAR-4) | GI50 (IGROV-1) | GI50 (MCF7) | GI50 (SK-MEL-28) | GI50 (NCI-H226) | GI50 (UACC-62) | GI50 (TK-10) | GI50 (RXF 393) | GI50 (SN12C) | GI50 (MDA-N) | GI50 (MDA-MB-231)
CC(C)=CCC[C@@H](C)C1=C(Nc2ccccc2)C(=O)C(C)=C(O)C1=O | 2.74 µM (inactive) | 1.81 µM (inactive) | 2.56 µM (inactive) | 3.63 µM (inactive) | 2.34 µM (inactive) | 5.58 µM (inactive) | 3.92 µM (inactive) | 4.16 µM (inactive) | 4.72 µM (inactive) | 6.62 µM (inactive) | 3.01 µM (inactive) | 4.29 µM (inactive) | 8.02 µM (inactive) | 3.13 µM (inactive) | 4.03 µM (inactive) | 4.29 µM (inactive) | 3.78 µM (inactive) | 4.19 µM (inactive) | 4.54 µM (inactive) | 2.89 µM (inactive)
CCOC(=O)/C=C(\C(=O)OCC)n1ccc(=O)[nH]c1=O | 17.4 µM (inactive) | 26.9 µM (inactive) | 9.35 µM (inactive) | 16.9 µM (inactive) | 29.4 µM (inactive) | 22.4 µM (inactive) | 12.8 µM (inactive) | 15.2 µM (inactive) | 17.4 µM (inactive) | 19.1 µM (inactive) | 15.4 µM (inactive) | 9.2 µM (inactive) | 16.9 µM (inactive) | 13.3 µM (inactive) | 16.4 µM (inactive) | 13.3 µM (inactive) | 10.6 µM (inactive) | 11.8 µM (inactive) | 22.6 µM (inactive) | 14.3 µM (inactive)
CCO/C=C(\C(=O)OC)S(=O)(=O)c1ccc(C)cc1 | > 100 µM (inactive) | > 100 µM (inactive) | > 100 µM (inactive) | > 100 µM (inactive) | > 100 µM (inactive) | > 100 µM (inactive) | > 100 µM (inactive) | > 100 µM (inactive) | > 100 µM (inactive) | > 100 µM (inactive) | > 100 µM (inactive) | > 100 µM (inactive) | > 100 µM (inactive) | > 100 µM (inactive) | > 100 µM (inactive) | > 100 µM (inactive) | > 100 µM (inactive) | > 100 µM (inactive) | > 100 µM (inactive) | > 100 µM (inactive)
Oc1cccc(-c2cn3cc(Cl)ccc3n2)c1 | 69.2 µM (inactive) | > 100 µM (inactive) | 43.9 µM (inactive) | 29.2 µM (inactive) | 97.1 µM (inactive) | 96.6 µM (inactive) | 45.7 µM (inactive) | 43.4 µM (inactive) | 34.9 µM (inactive) | 32.1 µM (inactive) | 16.7 µM (inactive) | 17.3 µM (inactive) | 59.8 µM (inactive) | 91.4 µM (inactive) | 35.1 µM (inactive) | 35.4 µM (inactive) | 23.1 µM (inactive) | 57.1 µM (inactive) | 39.8 µM (inactive) | > 100 µM (inactive)
O=S(=O)(CC(Cl)c1ccccc1)c1nc2ccccc2s1 (stereo not given) | 12.5 µM (inactive) | 23.1 µM (inactive) | 15.5 µM (inactive) | 16 µM (inactive) | 27.6 µM (inactive) | 18.7 µM (inactive) | 1.5 µM (inactive) | 5.42 µM (inactive) | 7.71 µM (inactive) | 19.8 µM (inactive) | 9.12 µM (inactive) | 7.48 µM (inactive) | 15.7 µM (inactive) | 8.11 µM (inactive) | 15.1 µM (inactive) | 19.5 µM (inactive) | 15 µM (inactive) | 10.2 µM (inactive) | 6.22 µM (inactive) | 14.1 µM (inactive)
CC[C@H]1CN2CCc3cc(OC)c(OC)cc3[C@@H]2C[C@@H]1C[C@H]1NCCc2c1[nH]c1ccc(O)cc21 [TUBULOSINE] | < 0.0103 µM (active) | < 0.01 µM (active) | 0.0396 µM (active) | < 0.0156 µM (active) | 0.0169 µM (active) | 0.0222 µM (active) | < 0.01 µM (active) | < 0.01 µM (active) | < 0.0125 µM (active) | < 0.01 µM (active) | 0.0157 µM (active) | < 0.01 µM (active) | 0.0211 µM (active) | < 0.0113 µM (active) | 0.0182 µM (active) | 0.0388 µM (active) | 0.016 µM (active) | < 0.01 µM (active) | < 0.01 µM (active) | < 0.01 µM (active)
CC1=NN(c2ccccc2)C2(C1)C(Cl)C(=O)N2c1nc2ccccc2s1 (stereo not given) | 26 µM (inactive) | 25.2 µM (inactive) | 46.9 µM (inactive) | 37.1 µM (inactive) | 50.5 µM (inactive) | 32.1 µM (inactive) | 13.5 µM (inactive) | 34.9 µM (inactive) | 40.6 µM (inactive) | 85.1 µM (inactive) | 16.6 µM (inactive) | 43.9 µM (inactive) | 36.6 µM (inactive) | 15.1 µM (inactive) | 34.4 µM (inactive) | > 100 µM (inactive) | 23.8 µM (inactive) | 23.5 µM (inactive) | 35.6 µM (inactive) | 28.8 µM (inactive)
